{"source": "patent US9034387B2", "about": "“Intrinsically fluorescent carbon nanospheres and a process thereof” (priority 2007, dated 2015)", "system": "acetylated histone H3 in HeLa cells", "experiment": "Immunofluorescence analysis using acetylated H3 antibody", "format": "cell-based", "conditions": "CTPB alone at 300 μM, compared with untreated cells", "description": "FIG. 3. Small molecule HAT activator binds to the CSP and induces hyperacetylation within HeLa cells. (a) X-ray crystal structure of CTPB showing the ball and stick model view of the compound. The color coding of the atoms is as follows: light blue, carbon; white, hydrogen; red, oxygen; grey, fluorine; green, chlorine; dark blue, nitrogen. (b) SEM image of the carbon spheres, adsorbed with CTPB (Panel I). A specific area of the sample was excited with the electron beam of energy suitable for the constituent elements to emit the X-rays of their characteristic wavelength. […] (c)-(d) Top panel represents the confocal image of HeLa cells, Bottom panel represents intensity profile of the image arising from Hoechst stained nuclei shown as blue peak, Fluorescence intensity of CSP is shown as light green peak, Fluorescence intensity from Alexa 488 fluor antibody is shown as dark green peak. HeLa cells, (3c, I) untreated, stained with Hoechst dye; (3c, II) treated with CSP, where carbon sphere fluorescence always overlap with the nuclear region, showing that the nanosphere localized within the nucleus specifically; (3c, III) untreated, probed with antibody against acetylated histone H3; (3c, IV) treated with HAT activator CTPB (300 μM), probed with antibody against acetylated histone H3. […]", "data": [{"smiles": "CCOc1ccccc1C(=O)Nc1ccc(Cl)c(C(F)(F)F)c1", "note": "[CTPB, 4-chloro-3-trifluoromethylphenyl-2-ethoxybenzamide]", "values": [{"measurement": "acetylation level (acetylated H3 immunofluorescence), result in words", "value": "did not show any difference"}]}]}
